Laboratory results: the supplement of paper PMC11208160

experiment: recombinant barcode read abundance after kanamycin selection (control-corrected) (log10(CPM+1)); higher = more efficient recombination; sequences stand for … in AGTGCAGAGAAAATCGGCCAGTTTTCTCTGCCTGCAGTCCGCATGCCGT…AGATTTATGCAGCGGACTGCCTTTCTCCCAAAGTGATAAACCGGACAGTATCATGGACCGGTTTTCCCGGTAATCCGTATTTGCAAGGTTGGTTTCACT; site = the 11-nt target
How it was run: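 Each value is log10(CPM+1). It describes recombination efficiency, taken as averaged, control-corrected counts per million of barcodes at recombinant junctions. The pooled E. coli library paired targets with IS621 bridge RNA target-binding loops, was co-electroporated with a donor plasmid, and was plated twice on chloramphenicol/ampicillin LB agar (control) and twice on chloramphenicol/ampicillin/kanamycin containing 0.1 mM IPTG.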
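Note: IS621 recombinase and bridge RNA in Escherichia coli cells.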

Point of comparison: “GTAAGGACTTGGGTTCTAACCTGTTGCTT (site GTAAGAACTAA)”, “recombinant barcode read abundance (log10)” value 0.738. Against it:
- GGTCGCTCTTGGGTTCTAACCTGTTGCCT (site GGTCGCTCTAG) — higher, 1.35
- GGTGACTCTTGGGTTCTAACCTGTTGCCT (site GGTGACTCTAG) — higher, 1.15
- GGTGACTCTTGGGTTCTAACCTGTTGCCT (site GGTGGATCTAG) — lower, 0.114
- GGTGCTCCTTGGGTTCTAACCTGTTGCAA (site GGTGCTCCTAT) — lower, 0.0718
- GGTGCTCCTTGGGTTCTAACCTGTTGCAA (site GGTGCTCCTCT) — lower, 0.0634
- GGTGCTCCTTGGGTTCTAACCTGTTGCAA (site GGTGCTCCTGT) — lower, 0.0326
- GGTGCTCCTTGGGTTCTAACCTGTTGCAA (site GGTGCTCCTTT) — lower, 0.3
- GGTGCTCCTTGGGTTCTAACCTGTTGCAG (site GGTGCTCCTAT) — lower, 0.0917
- GGTGCTCCTTGGGTTCTAACCTGTTGCAG (site GGTGCTCCTCT) — within 0.2 log units, 0.88
- GGTGCTCCTTGGGTTCTAACCTGTTGCAG (site GGTGCTCCTGT) — lower, 0
- GGTGCTCCTTGGGTTCTAACCTGTTGCAG (site GGTGCTCCTTT) — lower, 0.0255
- GGTGCTCCTTGGGTTCTAACCTGTTGCAT (site GGTGCTCCTAT) — within 0.2 log units, 0.914
- GGTGCTCCTTGGGTTCTAACCTGTTGCAT (site GGTGCTCCTCT) — lower, 0.017
- GGTGCTCCTTGGGTTCTAACCTGTTGCAT (site GGTGCTCCTGT) — lower, 0.0976
- GGTGCTCCTTGGGTTCTAACCTGTTGCAT (site GGTGCTCCTTT) — lower, 0.0242
- GGTGGGACTTGGGTTCTAACCTGTTGCAC (site AAATCTGCTAG) — lower, 0.259
- GGTGGGACTTGGGTTCTAACCTGTTGCAC (site GGTGGGACTGT) — higher, 1.95
- GGTTCATCTTGGGTTCTAACCTGTTGCCA (site GGCTCCTCTTG) — lower, 0.0691
- GGTTCATCTTGGGTTCTAACCTGTTGCCA (site GGTTCATCTTG) — lower, 0.0738
- GGTTCCTCTTGGGTTCTAACCTGTTGCGG (site GGTTCCTCTCC) — within 0.2 log units, 0.933
- GGTTCCTCTTGGGTTCTAACCTGTTGCGG (site TACCTAACTAA) — lower, 0.118
- GGTTGACCTTGGGTTCTAACCTGTTGCAT (site GGTTCACCTCT) — lower, 0.226
- GGTTGACCTTGGGTTCTAACCTGTTGCAT (site GGTTGACCTAT) — within 0.2 log units, 0.913
- GTAACCTCTTGGGTTCTAACCTGTTGCCC (site GTAACCTCTAG) — within 0.2 log units, 0.928
- GTAACCTCTTGGGTTCTAACCTGTTGCCC (site GTAACCTCTCG) — lower, 0.179
- GTAACCTCTTGGGTTCTAACCTGTTGCCC (site GTAACCTCTGG) — higher, 1.97
- GTAACCTCTTGGGTTCTAACCTGTTGCCC (site GTAACCTCTTG) — lower, 0.128
- GTAACTACTTGGGTTCTAACCTGTTGCAC (site CTAATTACTGT) — lower, 0.0302
- GTAACTACTTGGGTTCTAACCTGTTGCAC (site GTAACTACTGT) — within 0.2 log units, 0.926
- GTAACTACTTGGGTTCTAACCTGTTGCGG (site GTAACTACTCC) — higher, 2.1
- GTAACTACTTGGGTTCTAACCTGTTGCGG (site GTCACTACTAC) — lower, 0.0797
- GTAACTCCTTGGGTTCTAACCTGTTGCCT (site GTAACTCCTAG) — lower, 0.487
- GTAACTCCTTGGGTTCTAACCTGTTGCCT (site TGAACTCCTAG) — lower, 0.041
- GTAACTGCTTGGGTTCTAACCTGTTGCCT (site GTAAATGCTAG) — lower, 0.373
- GTAACTGCTTGGGTTCTAACCTGTTGCCT (site GTAACTGCTAG) — higher, 0.941
- GTAACTGCTTGGGTTCTAACCTGTTGCCT (site GTAAGTGCTAG) — lower, 0.084
- GTAACTGCTTGGGTTCTAACCTGTTGCCT (site GTAATTGCTAG) — lower, 0.0184
- GTAAGGACTTGGGTTCTAACCTGTTGCTT (site GTAAGCACTAA) — lower, 0.156
- GTAAGGACTTGGGTTCTAACCTGTTGCTT (site GTAAGGACTAA) — higher, 1.16
- GTAAGGACTTGGGTTCTAACCTGTTGCTT (site GTAAGTACTAA) — lower, 0.0109
- GTAAGTACTTGGGTTCTAACCTGTTGCCA (site ATAAGTCCTTG) — lower, 0.063
- GTAAGTACTTGGGTTCTAACCTGTTGCCA (site GTAAGTACTTG) — higher, 1.54
- GTAATTACTTGGGTTCTAACCTGTTGCCT (site GTAATTACTAG) — lower, 0.441
- GTAATTACTTGGGTTCTAACCTGTTGCCT (site TACGCACCTTC) — lower, 0.0355
- GTACAGCCTTGGGTTCTAACCTGTTGCCT (site GTACAGCCTAG) — higher, 1.35
- GTACAGCCTTGGGTTCTAACCTGTTGCCT (site GTACCGCCTAG) — lower, 0.0712
- GTACAGCCTTGGGTTCTAACCTGTTGCCT (site GTACGGCCTAG) — lower, 0.0431
- GTACAGCCTTGGGTTCTAACCTGTTGCCT (site GTACTGCCTAG) — lower, 0.155
- GTACATCCTTGGGTTCTAACCTGTTGCGT (site AAGGTCACTCA) — lower, 0.0803
- GTACATCCTTGGGTTCTAACCTGTTGCGT (site GTACATCCTAC) — higher, 2.13
- GTACGCGCTTGGGTTCTAACCTGTTGCGT (site CTACGCGCTAA) — lower, 0.392
- GTACGCGCTTGGGTTCTAACCTGTTGCGT (site GTACGCGCTAC) — higher, 1.14
- GTACGCTCTTGGGTTCTAACCTGTTGCTT (site GGAAGCTCTAA) — lower, 0
- GTACGCTCTTGGGTTCTAACCTGTTGCTT (site GTACGCTCTAA) — lower, 0.218
- GTACGGTCTTGGGTTCTAACCTGTTGCAT (site GTACGATCTTT) — lower, 0.107
- GTACGGTCTTGGGTTCTAACCTGTTGCAT (site GTACGGTCTAT) — higher, 2
- GTACGTCCTTGGGTTCTAACCTGTTGCTT (site GTACGTCCTAA) — within 0.2 log units, 0.777
- GTACGTCCTTGGGTTCTAACCTGTTGCTT (site GTACGTCCTAC) — lower, 0.143
